Results taken from patent US11173120B2, “Stable formulations of lipids and liposomes” (BioNTech RNA Pharmaceuticals GmbH, priority 2014, dated 2021).

Test: Stability of DOPE in DOTMA/DOPE liposomes as a function of pH (HPLC lipid recovery, 37° C.)
Type: physicochemical
Settings: under all conditions (pH 4-7), up to 6 weeks
Description: The stability of DOPE in DOTMA/DOPE liposomes was investigated after adjusting the pH to different values between pH 7 and pH 4. For pH 7, 10 mM HEPES buffer was used. For all lower pH values, acetic acid buffers (all 10 mM) were used (see Table 1). R6 glass type I vials were filled with 2 mL of the liposomes dispersion and stored in a stability chamber at 37° C. pH values were measured by potentiometry using a WTW pH-meter inoLab pH 7310, Weilheim, Germany.
The lipid stability was tested at different time points up to 6 weeks after preparation of the liposomes by measuring the lipid concentration in the liposome preparation using a HPLC system (Agilent Technologies 1200 equipped with DAD and ELSD detectors, Santa Clara, Calif., USA).
Plotted is the normalized recovery of DOPE (in percent) from the DOTMA/DOPE liposomes. […] In contrast, at pH 5, already degradation with a recovery of only 80% of the initial value was observed.

**Q.** Which “degradation of DOTMA in DOTMA/DOPE liposomes” value does the source give for `CCCCCCCC/C=C\CCCCCCCCOCC(C[N+](C)(C)C)OCCCCCCCC/C=C\CCCCCCCC` (stereo not shown) [DOTMA, 1,2-di-O-octadecenyl-3-trimethylammoniumpropane] here?
**A.** Its value is “no indication for degradation”.
